{
  "source": "paper PMC9849163",
  "about": "“Characterisation of AMB-FUBINACA metabolism and CB1-mediated activity of its acid metabolite” (Forensic Toxicology, 2022)",
  "key": {"[1]": {"molecular_target": "T1, CES1 (carboxylesterase 1, CES1A1) (Homo sapiens, UniProt P23141)", "T1 construct": "CES1 isoform b (CES1b/CES1A1) human recombinant", "T1 sequence (P23141 18-567)": "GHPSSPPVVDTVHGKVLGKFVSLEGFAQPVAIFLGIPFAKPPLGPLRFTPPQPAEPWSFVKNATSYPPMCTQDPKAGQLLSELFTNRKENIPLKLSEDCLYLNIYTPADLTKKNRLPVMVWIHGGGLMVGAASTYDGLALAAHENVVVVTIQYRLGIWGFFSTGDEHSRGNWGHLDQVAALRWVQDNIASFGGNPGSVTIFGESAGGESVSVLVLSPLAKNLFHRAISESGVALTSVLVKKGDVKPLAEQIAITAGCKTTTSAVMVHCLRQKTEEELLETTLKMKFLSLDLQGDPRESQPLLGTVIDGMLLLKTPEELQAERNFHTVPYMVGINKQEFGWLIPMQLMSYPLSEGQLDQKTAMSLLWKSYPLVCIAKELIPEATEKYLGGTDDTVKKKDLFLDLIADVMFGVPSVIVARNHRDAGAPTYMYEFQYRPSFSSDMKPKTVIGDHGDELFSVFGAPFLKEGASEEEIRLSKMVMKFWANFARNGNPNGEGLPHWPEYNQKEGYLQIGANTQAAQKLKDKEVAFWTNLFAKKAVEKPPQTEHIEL", "test": "product of AMB-FUBINACA hydrolysis by recombinant CES1, HPLC-DAD", "assay_type": "biochemical"}, "[2]": {"molecular_target": "T2, cannabinoid type-1 receptor (CB1) (Homo sapiens, UniProt P21554)", "T2 construct": "gene CNR1; 3HA-tagged human CB1 in HEK293 cells", "T2 sequence (P21554 whole entry)": "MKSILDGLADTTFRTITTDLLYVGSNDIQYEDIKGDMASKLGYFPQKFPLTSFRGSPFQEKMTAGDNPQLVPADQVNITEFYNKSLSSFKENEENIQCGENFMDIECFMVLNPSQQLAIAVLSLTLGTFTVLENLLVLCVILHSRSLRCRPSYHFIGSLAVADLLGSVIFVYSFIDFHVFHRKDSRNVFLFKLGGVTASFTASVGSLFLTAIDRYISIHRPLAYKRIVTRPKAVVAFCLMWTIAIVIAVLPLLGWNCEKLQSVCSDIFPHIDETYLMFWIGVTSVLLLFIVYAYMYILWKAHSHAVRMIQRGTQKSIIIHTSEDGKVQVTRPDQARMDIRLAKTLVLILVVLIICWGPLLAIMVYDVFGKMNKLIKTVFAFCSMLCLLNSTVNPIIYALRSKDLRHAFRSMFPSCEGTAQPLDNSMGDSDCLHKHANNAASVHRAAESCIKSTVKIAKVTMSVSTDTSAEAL", "test": "BRET CAMYEL cAMP inhibition assay (agonism); also weak radioligand displacement ([…] at […])", "assay_type": "cell-based"}, "[3]": {"molecular_target": "T2, cannabinoid type-1 receptor (CB1)", "test": "BRET CAMYEL cAMP inhibition assay (agonism) in HEK293 cells stably expressing 3HA-hCB1", "assay_type": "cell-based"}, "[4]": {"molecular_target": "T1, CES1 (carboxylesterase 1, CES1A1)", "test": "hydrolysis by recombinant CES1, HPLC-DAD time course (t1/[…] s at […])", "assay_type": "biochemical"}, "[5]": {"molecular_target": "T3, CES2 (carboxylesterase-2) (Homo sapiens, UniProt O00748)", "T3 construct": "carboxylesterase-2 (CES2) human recombinant", "T3 sequence (O00748 27-559)": "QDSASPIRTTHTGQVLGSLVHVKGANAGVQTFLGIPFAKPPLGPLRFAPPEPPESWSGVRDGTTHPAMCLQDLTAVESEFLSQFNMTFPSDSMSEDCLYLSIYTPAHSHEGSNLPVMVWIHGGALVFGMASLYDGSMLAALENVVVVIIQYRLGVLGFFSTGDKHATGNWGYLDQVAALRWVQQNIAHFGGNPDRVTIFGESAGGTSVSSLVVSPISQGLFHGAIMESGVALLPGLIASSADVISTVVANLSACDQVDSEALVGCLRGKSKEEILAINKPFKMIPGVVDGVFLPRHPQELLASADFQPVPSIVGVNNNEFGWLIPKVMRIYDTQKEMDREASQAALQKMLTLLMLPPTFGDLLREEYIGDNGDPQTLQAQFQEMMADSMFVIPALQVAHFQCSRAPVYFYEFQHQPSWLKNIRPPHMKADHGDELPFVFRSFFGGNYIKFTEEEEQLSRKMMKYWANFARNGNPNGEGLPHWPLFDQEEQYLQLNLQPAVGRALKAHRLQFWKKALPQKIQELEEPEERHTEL", "test": "p-nitrophenol formation by recombinant CES2, absorbance at […] nm", "assay_type": "biochemical"}, "[6]": {"molecular_target": "T1, CES1 (carboxylesterase 1, CES1A1)", "test": "p-nitrophenol formation by recombinant CES1, absorbance at […] nm", "assay_type": "biochemical"}, "[7]": {"molecular_target": "T1, CES1 (carboxylesterase 1, CES1A1)", "test": "inhibition of PNPA hydrolysis by recombinant CES1, absorbance at […] nm", "assay_type": "biochemical", "conditions": "read-out: % of control velocity at 50 μM"}, "[8]": {"molecular_target": "T3, CES2 (carboxylesterase-2)", "test": "inhibition of PNPA hydrolysis by recombinant CES2, absorbance at […] nm", "assay_type": "biochemical", "conditions": "read-out: % of control velocity at 50 μM"}},
  "data": [
    {"smiles": "CC(C)[C@H](NC(=O)c1nn(Cc2ccc(F)cc2)c2ccccc12)C(=O)O", "note": "[AMB-FUBINACA acid, methyl (2S)-2-((1-((4-fluorophenyl)methyl]indazole-3-carbonyl)amino)-3-methylbutanoic acid]", "values": [
      {"measurement": "product of AMB-FUBINACA hydrolysis by recombinant CES1, HPLC-DAD", "setting": "[1]", "value": "No metabolites other than AMB-FUBINACA acid were generated"},
      {"measurement": "EC50", "setting": "[2]", "value": 447, "unit": "nM"}
    ]},
    {"smiles": "COC(=O)[C@@H](NC(=O)c1nn(Cc2ccc(F)cc2)c2ccccc12)C(C)C", "note": "[AMB-FUBINACA, methyl (2S)-2-((1-((4-fluorophenyl)methyl)indazole-3-carbonyl)amino)-3-methylbutanoate]", "values": [
      {"measurement": "EC50", "setting": "[3]", "value": 0.148, "unit": "nM"},
      {"measurement": "half-life at 3 µM", "setting": "[4]", "value": 2, "unit": "min"}
    ]},
    {"smiles": "CC(=O)Oc1ccc([N+](=O)[O-])cc1", "note": "[p-nitrophenyl acetate]", "values": [
      {"measurement": "p-nitrophenol formation by recombinant CES2, absorbance at 405 nm", "setting": "[5]", "value": 221, "unit": "nmol/min/mg"},
      {"measurement": "p-nitrophenol formation by recombinant CES1, absorbance at 405 nm", "setting": "[6]", "value": 296, "unit": "nmol/min/mg"}
    ]},
    {"smiles": "CCCc1nc2c(C)cc(-c3nc4ccccc4n3C)cc2n1Cc1ccc(-c2ccccc2C(=O)O)cc1", "note": "[telmisartan]", "values": [
      {"measurement": "remaining activity at 50 µM", "setting": "[7]", "value": 71, "unit": "%"},
      {"measurement": "remaining activity at 50 µM", "setting": "[8]", "value": 58.2, "unit": "%"}
    ]}
  ]
}
